The results in this text go back to patent US20250353820A1, “ANTIVIRAL PYRAZOLOPYRIDINONE COMPOUNDS” (Novartis AG, priority 2019, published 2025).

pEC50, pIC50: −log10 of the molar value. Where two headings read alike, the source gives them in different places.

Test [1] addresses human HSV DNA polymerase UL30 (Human herpesvirus 1 (strain 17) (HHV-1) (Human herpes simplex virus 1), UniProt P04293). Kind of test: biochemical. To be noted: 625 pM HSV polymerase, 20 minutes at room temperature; read-out: HSV-polymerase Biochemical IC50.
Test [2] has as its target human CMV DNA polymerase UL54 (Human cytomegalovirus (strain AD169) (HHV-5) (Human herpesvirus 5), UniProt P08546). Kind of test: biochemical. To be noted: 100 pM CMV polymerase, 60 minutes at room temperature; read-out: CMV-polymerase Biochemical IC50.
The subject of test [3] is Luciferase-encoding HCMV (AD169 strain). Kind of test: microbe, parasite or virus in culture. The class given is cell-based.
Test [4] relates to HCMV-Rluc virus (AD169 pp28-hRluc rUL131). Nature of the test: CMV Luciferase Assay of Compounds 243-262 in ARPE-19 cells. It is filed as cell-based. To be noted: Human betaherpesvirus 5, AD169, ARPE-19, 72 h, read-out: CMV-Luc Cellular EC50 in ARPE-19. As to the method:
The assay uses a Luciferase-encoding HCMV. Luciferase is expressed under the control of a late viral gene (pp28) promoter in the AD169 strain, so that expression of the reporter is dependent on viral DNA replication. Compounds that affect any stage from viral entry to DNA replication result in a change in luciferase levels.
Compounds 243-262 were tested in a luminescence assay as follows.
ARPE-19 cells were maintained in growth medium (DMEM/F12 Glutamax+10 fetal bovine serum (FBS)+PenStrep) and, before reaching full confluence, were transferred to a centrifuge tube and spun for 5 minutes at 1000 rpm. The cells were resuspended in assay medium (DMEM/F12 Glutamax+2% FBS+PenStrep) and counted. Cell density was adjusted to one million cells per milliliter and infected with HCMV-Rluc virus (AD169 pp28-hRluc rUL131; MOI 0.6) in a 50 ml conical tube for 2 hours while shaking. After dilution of the infectious suspension ten-fold (to 100,000 cells per milliliter), 8000 cells are directly plated in 384-well plates pre-spotted with the compound to be tested. The cells were incubated for 72 hours at 37 degrees Celsius. Cells were then placed at room temperature and allowed to equilibrate for 20 minutes before addition of the Renilla-Glo (Promega) reagent. After a 10-minute incubation at room temperature, luminescence was measured on a microplate reader.

Another test has as its system VZV Ellen strain. Kind of test: VZV qPCR assay. To be noted: Human alphaherpesvirus 3, MRC5, 48 h, read-out: Cellular activity against VZV (EC50). For orientation: Real-time PCR tracks product formation cycle by cycle.
Test [5] concerns EBV (SNU-719 gastric carcinoma cell line latently infected). Kind of test: EBV qPCR assay. To be noted: human gammaherpesvirus 4, 72 h, read-out: Cellular activity against EBV (EC50).
In test [6] the test system is KOS strain of HSV-1 virus. Kind of test: HSV-1 qPCR assay. To be noted: read-out: Cellular activity against HSV-1 (EC50).
Where [7] appears, read: read-out: CMV-Luc Cellular EC50, NN-NHDF cells, MOI of 1, 72 hrs.
[8] abbreviates: Human betaherpesvirus 5, AD169, 72 h, read-out: CMV-Luc Cellular EC50, NN-NHDF cells, MOI of 1, 72 hrs.

For the compound `Cn1nc(C(=O)NCc2ccc(C#N)cc2)c2c1C(=O)N(CC1(S(=O)(=O)C(C)(CN)CO)CC1)CC2` (single isomer, unassigned) [Example 185], the values for the pIC50 in test [1] and in test [2] were 7.23 and 8.40, respectively. Moreover, in test [3] (setting [7]), the pEC50 is 6.56.
Regarding `Cn1nc(C(=O)NCc2ccc(C#N)cc2)c2c1C(=O)N(CC1(S(=O)(=O)C(C)(C)C(O)CO)CC1)CC2` (stereo not shown) [Example 252, N-(4-cyanobenzyl)-6-((1-((3,4-dihydroxy-2-methylbutan-2-yl)sulfonyl)cyclopropyl)methyl)-1-methyl-7-oxo-4,5,6,7-tetrahydro-1H-pyrazolo[3,4-c]pyridine-3-carboxamide], in test [4], the pEC50 is 7.66.
As for `CNCC(O)C(C)(C)S(=O)(=O)C1(CN2CCc3c(C(=O)NCc4ccc(Cl)cc4)nn(C)c3C2=O)CC1` (single isomer, unassigned) [Example 205], the pIC50 is 7.54 in test [1] and 8.70 in test [2]. In addition, the pEC50 in test [3] (setting [7]) is 8.05.
Take `N#Cc1ccc(CNC(=O)c2n[nH]c3c2CCN(CC2(S(=O)(=O)C4CC4)CC2)C3=O)cc1` [Example 45, N-(4-Cyanobenzyl)-6-((1-(cyclopropylsulfonyl)cyclopropyl)methyl)-7-oxo-4,5,6,7-tetrahydro-1H-pyrazolo[3,4-c]pyridine-3-carboxamide]: the values for the pIC50 in test [1] and in test [2] were 6.77 and 8.22, respectively. Also, the pEC50 in test [3] (setting [8]) was 6.84.
Turning to `Cn1nc(C(=O)NCc2ccc(C#N)cc2)c2c1C(=O)N(CC1(S(=O)(=O)C3CCOC3)CC1)CC2` (single isomer, unassigned) [Example 171], the values for the pIC50 in test [1] and in test [2] were 7.11 and 8.52, respectively. In addition, the pEC50 in test [3] (setting [7]) is 6.98.
On the same counts, the results for `CN(C)CC(O)C(C)(C)S(=O)(=O)C1(CN2CCc3c(C(=O)NCc4ccc(Cl)cc4)nn(C)c3C2=O)CC1` (single isomer, unassigned) [Example 207] are 7.06, 7.64 and 7.30.
Take `Cn1nc(C(=O)NCc2ccc(C#N)cc2)c2c1C(=O)N(CC1(S(=O)(=O)C(C)(C)C(O)CN)CC1)CC2` (single isomer, unassigned) [Example 199]: the pEC50 in the test with VZV Ellen strain is 6.90; in test [5] it was 7.96; in test [6] (Human alphaherpesvirus 1, 24 h) it was 7.52. In addition, the negative logarithm of the IC50 (pIC50) is 7.55 in test [1] and 9.00 in test [2].
For `Cn1nc(C(=O)NCc2ccc(C#N)cc2)c2c1C(=O)N(CC1(S(=O)(=O)C3(C(O)CO)CC3)CC1)CC2` (single isomer, unassigned) [Example 195, (R)- or (S)—N-(4-Cyanobenzyl)-6-((1-((1-(1,2-dihydroxyethyl)cyclopropyl)sulfonyl)cyclopropyl)methyl)-1-methyl-7-oxo-4,5,6,7-tetrahydro-1H-pyrazolo[3,4-c]pyridine-3-carboxamide], the pIC50 in test [2] was 9.00. Besides, in test [3] (setting [7]), the pEC50 was 7.28.
In the case of `CC(N)COCC(C)(C)S(=O)(=O)C1(CN2CCc3c(C(=O)NCc4ccc(C#N)cc4)nn(C)c3C2=O)CC1` (single isomer, unassigned) [Example 100, (R)- or (S)-6-((1-((1-(2-Aminopropoxy)-2-methylpropan-2-yl)sulfonyl)cyclopropyl)methyl)-N-(4-cyanobenzyl)-1-methyl-7-oxo-4,5,6,7-tetrahydro-1H-pyrazolo[3,4-c]pyridine-3-carboxamide], the pIC50 in test [1] is 7.22; in test [2], 8.40. In test [3] (setting [8]), the pEC50 is 7.89.
For `Cn1nc(C(=O)NCc2ccc(Cl)cc2)c2c1C(=O)N(CC1(S(=O)(=O)C(C)(C)C(O)CN)CC1)CC2` (single isomer, unassigned) [Example 201], the pEC50 was 7.74 in test [6] (NN-NHDF cells, MOI of 0.01, 24 hrs, qPCR); 8.22 in test [3] (setting [7]); 8.22 in test [3] (read-out: Cellular activity against CMV (EC50), Table 18, CMV). Further, the results for the pIC50 in test [1] and in test [2] were 7.82 and 9.00, respectively.
For `CNCC(O)C(C)(C)S(=O)(=O)C1(CN2CCc3c(C(=O)NCc4ccc(C#N)cc4)nn(C)c3C2=O)CC1` (single isomer, unassigned) [Example 203], the pIC50 in test [1] was 7.42; in test [2] it was 8.70. In test [3] (setting [7]), the pEC50 is 7.72.
`CC(C)[C@@H](NS(=O)(=O)C1(CN2CCc3c(C(=O)NCc4ccc(Cl)cc4)nn(C)c3C2=O)CC1)C(=O)O` [Example 215, ((1-((3-((4-Chlorobenzyl)carbamoyl)-1-methyl-7-oxo-1,4,5,7-tetrahydro-6H-pyrazolo[3,4-c]pyridin-6-yl)methyl)cyclopropyl)sulfonyl)-D-valine]: the pIC50 is 7.55 in test [1] and 9.00 in test [2]. Moreover, the pEC50 in test [3] (NN-NHDF cells, MOI of 1, 72 hrs, read-out: CMV-Luc Cellular EC50) was 5.72.
Take `Cn1nc(C(=O)NCc2ccc(C#N)cc2)c2c1C(=O)N(CC1(S(=O)(=O)C(C)(C)COCCO)CC1)CC2` [Example 87, N-(4-Cyanobenzyl)-6-((1-((1-(2-hydroxyethoxy)-2-methylpropan-2-yl)sulfonyl)cyclopropyl)methyl)-1-methyl-7-oxo-4,5,6,7-tetrahydro-1H-pyrazolo[3,4-c]pyridine-3-carboxamide]: the pIC50 in test [1] is 7.49; in test [2], 9.00. Besides, in test [3] (setting [8]), the pEC50 was 7.36.
The like results for `Cn1nc(C(=O)NCc2ccc(Cl)cc2)c2c1C(=O)N(CC1(S(=O)(=O)C3(C(O)CO)CC3)CC1)CC2` (single isomer, unassigned) [Example 196] were, in that order, 7.72, 9.00 and 7.72.

One may read the pIC50 as the negative decadic logarithm of the IC50, by convention in mol/L. In general, pEC50 refers to the negative decadic logarithm of the EC50, by convention in mol/L.
